Laboratory results: ChEMBL document CHEMBL5344418, “Recent developments in antimalarial activities of 4-aminoquinoline derivatives” (Eur J Med Chem, 2023)

Assays:
Hemozoin [1] = experiment: Inhibition of Beta-hematin formation in Plasmodium falciparum K1 by spectrophotometric analysis
Hemozoin [2] = experiment: Inhibition of Beta-hematin formation in Plasmodium falciparum 3D7 by spectrophotometric analysis
[3] = Cytotoxicity against Chinese hamster CHO cells assessed as reduction in cell viability by MTT assay; format: toxicity, cell-based; details: Chinese hamster (Cricetulus griseus)
Plasmodium falciparum [4] = experiment: Antiplasmodial activity against chloroquine-sensitive Plasmodium falciparum NF54 by lactate dehydrogenase assay; format: functional, organism-based
[5] = Cytotoxicity against African green monkey Vero cells assessed as reduction in cell viability incubated for 24 hrs by fluorescence based analysis; format: toxicity; details: African green monkey (Chlorocebus sabaeus)
Plasmodium falciparum [6] = experiment: Antimalarial activity against chloroquine-sensitive Plasmodium falciparum 3D7 assessed as reduction in parasite growth incubated for 72 hrs by SYBR Green staining based fluorescence analysis; format: functional, organism-based; details: 3D7, 72 h
Plasmodium falciparum [7] = experiment: Antiplasmodial activity against Plasmodium falciparum 3D7 assessed as growth inhibition measured after 72 hrs by SYBR green dye based assay; format: functional, organism-based; details: 3D7, 72 h
Plasmodium falciparum [8] = experiment: Antiplasmodial activity against Plasmodium falciparum K1 assessed as growth inhibition measured after 72 hrs by SYBR green dye based assay; format: functional, organism-based; details: K1, 72 h

N#Cc1ccc(-c2cncn2CCNc2ccnc3cc(Cl)ccc23)cc1
IC50 (Hemozoin [1]): 730 nM
IC50 (Hemozoin [2]): 5 µM

O=C(/C=C/c1ccc(F)c(F)c1)c1ccc(S(=O)(=O)NCCCNc2cncc3cc(Cl)ccc23)cc1
IC50 [3]: > 300 µM
IC50 (Plasmodium falciparum [4]): 2580 nM

O=C1c2ccc(N3CCN(CCO)CC3)cc2C(=O)N1CCCCNc1ccnc2cc(Cl)ccc12
IC50 at 24 h [5]: 24.6 µM

CN(c1ccnc2cc(C(F)(F)F)ccc12)C(Cc1ccccc1)CN1CCOCC1 (stereo not given)
IC50 (Plasmodium falciparum [6]): 3890 nM

O=C1c2ccc(N3CCN(CCO)CC3)cc2C(=O)N1CCNc1ccnc2cc(Cl)ccc12
IC50 at 24 h [5]: 26 µM

COc1ccc(/C=C/C(=O)c2ccc(S(=O)(=O)NCCNc3cncc4cc(Cl)ccc34)cc2)cc1
IC50 [3]: 17.5 µM
IC50 (Plasmodium falciparum [4]): 490 nM

Cc1ccsc1-c1cncn1CCNc1ccnc2cc(Cl)ccc12
IC50 (Hemozoin [1]): 460 nM
IC50 (Hemozoin [2]): 5 µM

O=C1c2cccc(N3CCOCC3)c2C(=O)N1CCCCNc1ccnc2cc(Cl)ccc12
IC50 at 24 h [5]: 108 µM

O=C(/C=C/c1ccc(F)cc1)c1ccc(S(=O)(=O)NCCNc2cncc3cc(Cl)ccc23)cc1
IC50 [3]: 14.5 µM
IC50 (Plasmodium falciparum [4]): 570 nM

O=C(/C=C/c1cc(F)ccc1F)c1ccc(S(=O)(=O)NCCCNc2cncc3cc(Cl)ccc23)cc1
IC50 [3]: 43.7 µM
IC50 (Plasmodium falciparum [4]): 790 nM

CCN(CC)CC(Cc1ccccc1)N(C)c1ccnc2cc(C(F)(F)F)ccc12 (stereo not given)
IC50 (Plasmodium falciparum [6]): 1750 nM

COc1ccc(/C=C/C(=O)c2ccc(S(=O)(=O)NCCNc3cncc4cc(Cl)ccc34)cc2)cc1OC
IC50 [3]: 45.1 µM
IC50 (Plasmodium falciparum [4]): 330 nM

Clc1ccc2c(NCCn3cncc3-c3cccc4ccccc34)ccnc2c1
IC50 (Hemozoin [1]): 920 nM
IC50 (Hemozoin [2]): 5 µM

O=C1c2cccc(N3CCCCC3)c2C(=O)N1CCCCNc1ccnc2cc(Cl)ccc12
IC50 at 24 h [5]: 54.1 µM

O=C(/C=C/c1ccccc1)c1ccc(S(=O)(=O)NCCCNc2cncc3cc(Cl)ccc23)cc1
IC50 [3]: > 50 µM
IC50 (Plasmodium falciparum [4]): 1670 nM

O=C1c2ccc(N3CCN(CCO)CC3)cc2C(=O)N1CCCNc1ccnc2cc(Cl)ccc12
IC50 at 24 h [5]: 25.3 µM

O=C(/C=C/c1ccco1)c1ccc(S(=O)(=O)NCCCNc2cncc3cc(Cl)ccc23)cc1
IC50 [3]: > 50 µM
IC50 (Plasmodium falciparum [4]): 4450 nM

O=C(/C=C/c1ccc(Cl)cc1)c1ccc(S(=O)(=O)NCCCNc2cncc3cc(Cl)ccc23)cc1
IC50 [3]: 41.2 µM
IC50 (Plasmodium falciparum [4]): 100 nM

Fc1ccc(-c2cncn2CCNc2ccnc3cc(Cl)ccc23)cc1
IC50 (Hemozoin [1]): 3040 nM
IC50 (Hemozoin [2]): 5 µM

O=C(/C=C/c1ccccc1Br)c1ccc(S(=O)(=O)NCCCNc2cncc3cc(Cl)ccc23)cc1
IC50 [3]: 43.2 µM
IC50 (Plasmodium falciparum [4]): 100 nM

O=C1c2ccc(N3CCCCC3)cc2C(=O)N1CCCCNc1ccnc2cc(Cl)ccc12
IC50 at 24 h [5]: 27 µM

Clc1ccc2c(NCCn3cncc3C3CCCCC3)ccnc2c1
IC50 (Hemozoin [1]): 520 nM
IC50 (Hemozoin [2]): 0.19 µM

O=C1c2ccc(N3CCOCC3)cc2C(=O)N1CCCCNc1ccnc2cc(Cl)ccc12
IC50 at 24 h [5]: 26.9 µM

Clc1ccc2c(NCCn3cncc3-c3ccc[nH]3)ccnc2c1
IC50 (Hemozoin [1]): 1150 nM
IC50 (Hemozoin [2]): 5 µM

Cc1ccc(/C=C/C(=O)c2ccc(S(=O)(=O)NCCCNc3cncc4cc(Cl)ccc34)cc2)cc1
IC50 [3]: 25.1 µM
IC50 (Plasmodium falciparum [4]): 370 nM

CCOC(=O)N1CCN(CCNc2ccnc3cc(Cl)ccc23)CC1
IC50 (Plasmodium falciparum [7]): 899 nM
IC50 (Plasmodium falciparum [8]): 162 nM

COc1ccc(-c2cncn2CCNc2ccnc3cc(Cl)ccc23)cc1
IC50 (Hemozoin [1]): 1780 nM
IC50 (Hemozoin [2]): 5 µM

COc1ccc(/C=C/C(=O)c2ccc(S(=O)(=O)NCCCNc3cncc4cc(Cl)ccc34)cc2)c(OC)c1OC
IC50 [3]: 22.6 µM
IC50 (Plasmodium falciparum [4]): 580 nM

CC(C)CC(CN1CCN(Cc2ccc3c(c2)OCO3)CC1)Nc1ccnc2cc(Cl)ccc12 (stereo not given)
IC50 (Plasmodium falciparum [7]): 211 nM
IC50 (Plasmodium falciparum [8]): 453 nM

O=C(c1ccco1)N1CCN(CCNc2ccnc3cc(Cl)ccc23)CC1
IC50 (Plasmodium falciparum [7]): 993 nM
IC50 (Plasmodium falciparum [8]): 4230 nM

Clc1ccc2c(NCCn3cncc3C3CCCC3)ccnc2c1
IC50 (Hemozoin [1]): 340 nM
IC50 (Hemozoin [2]): 0.079 µM

Oc1ccc(-c2cncn2CCNc2ccnc3cc(Cl)ccc23)cc1
IC50 (Hemozoin [1]): 5000 nM
IC50 (Hemozoin [2]): 3.79 µM

COc1ccc(/C=C/C(=O)c2ccc(S(=O)(=O)NCCCNc3cncc4cc(Cl)ccc34)cc2)cc1
IC50 [3]: 43.3 µM
IC50 (Plasmodium falciparum [4]): 110 nM

O=C(/C=C/c1ccc(OC(F)(F)F)cc1)c1ccc(S(=O)(=O)NCCCNc2cncc3cc(Cl)ccc23)cc1
IC50 [3]: 44 µM
IC50 (Plasmodium falciparum [4]): 510 nM

CC(C)(C)c1cncn1CCNc1ccnc2cc(Cl)ccc12
IC50 (Hemozoin [1]): 500 nM
IC50 (Hemozoin [2]): 0.14 µM

CC(C)CC(CN1CCN(Cc2ccc3c(c2)OCO3)CC1)Nc1ccnc2cc(C(F)(F)F)ccc12 (stereo not given)
IC50 (Plasmodium falciparum [7]): 22.6 nM
IC50 (Plasmodium falciparum [8]): 46.5 nM

Clc1ccc2c(NCCn3cncc3-c3cccc(Oc4ccccc4)c3)ccnc2c1
IC50 (Hemozoin [1]): 2620 nM
IC50 (Hemozoin [2]): 5 µM

Cc1ccc(/C=C/C(=O)c2ccc(S(=O)(=O)NCCNc3cncc4cc(Cl)ccc34)cc2)cc1
IC50 [3]: 24.9 µM
IC50 (Plasmodium falciparum [4]): 390 nM

CCN1CCN(CC(CC(C)C)Nc2ccnc3cc(C(F)(F)F)ccc23)CC1 (stereo not given)
IC50 (Plasmodium falciparum [7]): 24.5 nM
IC50 (Plasmodium falciparum [8]): 798 nM

Clc1ccc2c(NCCN3CCN(c4ncccn4)CC3)ccnc2c1
IC50 (Plasmodium falciparum [7]): 108 nM
IC50 (Plasmodium falciparum [8]): 277 nM

CCOC(=O)N1CCN(CC(CC(C)C)Nc2ccnc3cc(Cl)ccc23)CC1 (stereo not given)
IC50 (Plasmodium falciparum [7]): 857 nM
IC50 (Plasmodium falciparum [8]): 412 nM

O=C1c2ccc(N3CCN(CCO)CC3)cc2C(=O)N1CCCCCCNc1ccnc2cc(Cl)ccc12
IC50 at 24 h [5]: 23.3 µM

CCC(C)C(CN1CCN(CC)CC1)Nc1ccnc2cc(Cl)ccc12 (stereo not given)
IC50 (Plasmodium falciparum [7]): 114 nM
IC50 (Plasmodium falciparum [8]): 502 nM

CCN1CCN(CC(Cc2ccccc2)Nc2ccnc3cc(Cl)ccc23)CC1 (stereo not given)
IC50 (Plasmodium falciparum [7]): 428 nM
IC50 (Plasmodium falciparum [8]): 70.8 nM

Clc1ccc2c(NCCn3cncc3-c3ccco3)ccnc2c1
IC50 (Hemozoin [1]): 970 nM
IC50 (Hemozoin [2]): 0.29 µM

O=C1c2cccc(N3CCOCC3)c2C(=O)N1CCCCCCNc1ccnc2cc(Cl)ccc12
IC50 at 24 h [5]: 50.8 µM

O=C(/C=C/c1ccccc1Cl)c1ccc(S(=O)(=O)NCCNc2cncc3cc(Cl)ccc23)cc1
IC50 [3]: 35.4 µM
IC50 (Plasmodium falciparum [4]): 370 nM

O=C(/C=C/c1ccccc1F)c1ccc(S(=O)(=O)NCCCNc2cncc3cc(Cl)ccc23)cc1
IC50 [3]: 45.5 µM
IC50 (Plasmodium falciparum [4]): 860 nM

O=C(/C=C/c1ccc2c(c1)OCO2)c1ccc(S(=O)(=O)NCCCNc2cncc3cc(Cl)ccc23)cc1
IC50 [3]: 34.1 µM
IC50 (Plasmodium falciparum [4]): 690 nM

O=C1c2cccc(N3CCCCC3)c2C(=O)N1CCCCCCNc1ccnc2cc(Cl)ccc12
IC50 at 24 h [5]: 204 µM

CC(CN1CCN(Cc2ccccc2)CC1)Nc1ccnc2cc(Cl)ccc12 (stereo not given)
IC50 (Plasmodium falciparum [7]): 405 nM
IC50 (Plasmodium falciparum [8]): 84 nM

O=C(/C=C/c1ccc(F)cc1)c1ccc(S(=O)(=O)NCCCNc2cncc3cc(Cl)ccc23)cc1
IC50 [3]: 14.7 µM
IC50 (Plasmodium falciparum [4]): 280 nM

Clc1ccc2c(NCCn3cncc3-c3ccc4c(c3)OCCO4)ccnc2c1
IC50 (Hemozoin [1]): 2400 nM
IC50 (Hemozoin [2]): 0.52 µM

CC(C)c1ccc(-c2cncn2CCNc2ccnc3cc(Cl)ccc23)cc1
IC50 (Hemozoin [1]): 290 nM
IC50 (Hemozoin [2]): 2.83 µM

CCN1CCN(CC(C)Nc2ccnc3cc(Cl)ccc23)CC1 (stereo not given)
IC50 (Plasmodium falciparum [7]): 126 nM
IC50 (Plasmodium falciparum [8]): 362 nM

CC(C)CC(CN1CCN(c2ccccc2)CC1)Nc1ccnc2cc(Cl)ccc12 (stereo not given)
IC50 (Plasmodium falciparum [7]): 521 nM
IC50 (Plasmodium falciparum [8]): > 1000 nM

Clc1ccc2c(NCCn3cncc3-c3c[nH]c4ccccc34)ccnc2c1
IC50 (Hemozoin [1]): 1700 nM
IC50 (Hemozoin [2]): 5 µM

COc1ccc(/C=C/C(=O)c2ccc(S(=O)(=O)NCCCNc3cncc4cc(Cl)ccc34)cc2)cc1OC
IC50 [3]: 43.4 µM
IC50 (Plasmodium falciparum [4]): 320 nM

CN(c1ccnc2cc(C(F)(F)F)ccc12)C(Cc1ccccc1)CN1CCCCC1 (stereo not given)
IC50 (Plasmodium falciparum [6]): 1370 nM

CCN1CCN(CC(CC(C)C)Nc2ccnc3cc(Cl)ccc23)CC1 (stereo not given)
IC50 (Plasmodium falciparum [7]): 57 nM
IC50 (Plasmodium falciparum [8]): 97.8 nM

CC(C)CC(CN1CCN(Cc2ccccc2)CC1)Nc1ccnc2cc(Cl)ccc12 (stereo not given)
IC50 (Plasmodium falciparum [7]): 154 nM
IC50 (Plasmodium falciparum [8]): > 1000 nM

FC(F)(F)c1ccc(-c2cncn2CCNc2ccnc3cc(Cl)ccc23)cc1
IC50 (Hemozoin [1]): 450 nM
IC50 (Hemozoin [2]): 0.21 µM

Clc1ccc2c(NC(Cc3ccccc3)CN3CCN(c4ccccc4)CC3)ccnc2c1 (stereo not given)
IC50 (Plasmodium falciparum [7]): > 1000 nM
IC50 (Plasmodium falciparum [8]): 1100 nM

O=C(/C=C/c1c(F)cccc1F)c1ccc(S(=O)(=O)NCCCNc2cncc3cc(Cl)ccc23)cc1
IC50 [3]: 27.6 µM
IC50 (Plasmodium falciparum [4]): 540 nM

O=C(/C=C/c1ccc(F)cc1F)c1ccc(S(=O)(=O)NCCCNc2cncc3cc(Cl)ccc23)cc1
IC50 [3]: 22.4 µM
IC50 (Plasmodium falciparum [4]): 500 nM

O=C1c2ccc(N3CCOCC3)cc2C(=O)N1CCCCCCNc1ccnc2cc(Cl)ccc12
IC50 at 24 h [5]: 25.4 µM

CSCCC(CN1CCN(Cc2ccccc2)CC1)Nc1ccnc2cc(Cl)ccc12 (stereo not given)
IC50 (Plasmodium falciparum [7]): 3100 nM
IC50 (Plasmodium falciparum [8]): > 5000 nM
